Experimental data reported in ChEMBL document CHEMBL1122462, “Potential antiatherosclerotic agents. 4. [(Functionalized-alkyl)amino]benzoic acid analogues of cetaben” (1983).

Tests used:
Format in all cases: functional
Rattus norvegicus [1] = assay: In vivo Triglyceride lowering activity at dose as 0.03 % of the diet
Rattus norvegicus [2] = assay: In vivo sterol lowering activity, dosed as 0.03 % of the diet
Rattus norvegicus [3] = assay: In vivo sterol lowering activity at dose of 0.10 % of the diet
Rattus norvegicus [4] = assay: In vivo Triglyceride lowering activity at dose as 0.01 % of the diet
Rattus norvegicus [5] = assay: In vivo Triglyceride lowering activity at a dose of 0.10 % of the diet
Rattus norvegicus [6] = assay: In vivo Sterol lowering activity at dose as 0.01% of the diet

`C[Si](C)(C)CCCCCCCCCCCNc1ccc(C(=O)[O-])cc1.[Na+]` was tested, and the triglyceride lowering activity (Rattus norvegicus [1]) was 88%, the “serum sterol level, percent of control” value (Rattus norvegicus [2]) was less than 73% and the “serum sterol level, % of control” value (Rattus norvegicus [3]) was less than 48%. The “serum triglyceride level (% of control)” value (Rattus norvegicus [4]) was 122%, the “serum triglyceride level (% of control)” value (Rattus norvegicus [5]) was less than 46% and the “serum sterol level, percent of control” value (Rattus norvegicus [6]) was less than 81%.
For `CCCCCCCCCCCCCCCCN(CS(=O)(=O)[O-])c1ccc(C(=O)O)cc1.[Na+]`, the triglyceride lowering activity (Rattus norvegicus [1]) was less than 57%, the “serum sterol level, percent of control” value (Rattus norvegicus [2]) was less than 87% and the “serum sterol level, % of control” value (Rattus norvegicus [3]) was less than 72%. The “serum triglyceride level (% of control)” value (Rattus norvegicus [4]) was 79%, the “serum triglyceride level (% of control)” value (Rattus norvegicus [5]) was less than 49% and the “serum sterol level, percent of control” value (Rattus norvegicus [6]) was 91%.
`O=C([O-])CCCCCCCCCCCCCCCNc1ccc(C(=O)[O-])cc1.[Na+].[Na+]` was tested, and the triglyceride lowering activity (Rattus norvegicus [1]) was 97%, the “serum sterol level, percent of control” value (Rattus norvegicus [2]) was 102% and the “serum sterol level, % of control” value (Rattus norvegicus [3]) was 106%. The “serum triglyceride level (% of control)” value (Rattus norvegicus [4]) was 93%, the “serum triglyceride level (% of control)” value (Rattus norvegicus [5]) was 132% and the “serum sterol level, percent of control” value (Rattus norvegicus [6]) was 102%.
For `O=C([O-])c1ccc(NCCCCCCCCCCCCCCCC(F)(F)F)cc1.[Na+]`, the triglyceride lowering activity (Rattus norvegicus [1]) was less than 39%, the “serum sterol level, percent of control” value (Rattus norvegicus [2]) was less than 62% and the “serum sterol level, % of control” value (Rattus norvegicus [3]) was less than 34%. The “serum triglyceride level (% of control)” value (Rattus norvegicus [4]) was less than 63%, the “serum triglyceride level (% of control)” value (Rattus norvegicus [5]) was less than 21% and the “serum sterol level, percent of control” value (Rattus norvegicus [6]) was less than 75%.
For `CCCCCCCCCCC(O)CCCCCNc1ccc(C(=O)O)cc1` (stereo not given), the triglyceride lowering activity (Rattus norvegicus [1]) was less than 43%, the “serum sterol level, percent of control” value (Rattus norvegicus [2]) was 96% and the “serum sterol level, % of control” value (Rattus norvegicus [3]) was less than 86%. For the same compound, the “serum triglyceride level (% of control)” value (Rattus norvegicus [4]) was less than 66%, the “serum triglyceride level (% of control)” value (Rattus norvegicus [5]) was less than 31% and the “serum sterol level, percent of control” value (Rattus norvegicus [6]) was 104%.
For `C[Si](C)(C)CCCCCCCCCCCCCCNc1ccc(C(=O)O)cc1`, the triglyceride lowering activity (Rattus norvegicus [1]) was less than 38%, the “serum sterol level, percent of control” value (Rattus norvegicus [2]) was less than 51% and the “serum sterol level, % of control” value (Rattus norvegicus [3]) was less than 40%. The “serum triglyceride level (% of control)” value (Rattus norvegicus [4]) was less than 59%, the “serum triglyceride level (% of control)” value (Rattus norvegicus [5]) was less than 30% and the “serum sterol level, percent of control” value (Rattus norvegicus [6]) was less than 70%.
With `C[Si](C)(C)CCCCCCCCCCCNc1ccc(C(=O)O)cc1` the triglyceride lowering activity (Rattus norvegicus [1]) was less than 54%, the “serum sterol level, percent of control” value (Rattus norvegicus [2]) was less than 69% and the “serum sterol level, % of control” value (Rattus norvegicus [3]) was less than 44%. For the same compound, the “serum triglyceride level (% of control)” value (Rattus norvegicus [4]) was less than 67%, the “serum triglyceride level (% of control)” value (Rattus norvegicus [5]) was less than 25% and the “serum sterol level, percent of control” value (Rattus norvegicus [6]) was less than 79%.
`C[Si](C)(C)CCCNc1ccc(C(=O)[O-])cc1.[Na+]` was tested, and the triglyceride lowering activity (Rattus norvegicus [1]) was 85%, the “serum sterol level, percent of control” value (Rattus norvegicus [2]) was less than 82% and the “serum sterol level, % of control” value (Rattus norvegicus [3]) was less than 64%. For the same compound, the “serum triglyceride level (% of control)” value (Rattus norvegicus [4]) was 102%, the “serum triglyceride level (% of control)” value (Rattus norvegicus [5]) was less than 77% and the “serum sterol level, percent of control” value (Rattus norvegicus [6]) was 87%.
`O=C(O)c1ccc(NCCCCCCCCCCCCCCCC(F)(F)F)cc1` was tested, and the triglyceride lowering activity (Rattus norvegicus [1]) was less than 41%, the “serum sterol level, percent of control” value (Rattus norvegicus [2]) was less than 72% and the “serum sterol level, % of control” value (Rattus norvegicus [3]) was less than 61%. For the same compound, the “serum triglyceride level (% of control)” value (Rattus norvegicus [4]) was less than 46%, the “serum triglyceride level (% of control)” value (Rattus norvegicus [5]) was less than 42% and the “serum sterol level, percent of control” value (Rattus norvegicus [6]) was less than 75%.
With `C[Si](C)(C)CCCNc1ccc(C(=O)O)cc1` the triglyceride lowering activity (Rattus norvegicus [1]) was less than 58%, the “serum sterol level, percent of control” value (Rattus norvegicus [2]) was 90% and the “serum sterol level, % of control” value (Rattus norvegicus [3]) was less than 82%. For the same compound, the “serum triglyceride level (% of control)” value (Rattus norvegicus [4]) was less than 69%, the “serum triglyceride level (% of control)” value (Rattus norvegicus [5]) was less than 47% and the “serum sterol level, percent of control” value (Rattus norvegicus [6]) was 100%.
